Laboratory results published in the supplement of paper PMC11061612.

Assays:
[1] = tested on: HOS (Osteosarcoma); test: Bliss excess, mean over the matrix (fraction); higher = more synergy
Outline: (§1)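 Cell lines in DMEM/F12 or RPMI with 10% FBS were plated in 1536-well plates, held 24 hours at 37°C, 5% CO2, then given two-drug dose matrices for 72 hours (DMSO typically 0.2%). Viability was read by CellTiter-Glo 2.0 luminescence and scaled as inhibition from 0 (vehicle wells) to 1 (blank wells). Combination Emax is the second-highest inhibition in the matrix; Bliss excess is observed combination effect minus expected EA + EB − EA·EB, EA and EB being single-agent effects.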

[2] = tested on: NCI-H2085 (Non-Small Cell Lung Carcinoma); test: as above
Outline: as §1

[3] = tested on: NCI-H82 (Small Cell Lung Carcinoma); test: as above
Outline: as §1

[4] = tested on: RO82-W-1 (Thyroid Gland Carcinoma); test: as above
Outline: as §1

[5] = tested on: CAL-148 (Breast Carcinoma); test: combination Emax (second highest fraction inhibited in the dose matrix, 72 h); higher = more inhibition; extreme values may be limits of the assay
Outline: as §1

[6] = tested on: CCRF-CEM (T-Lymphoblastic Leukemia); test: as above
Outline: as §1

[7] = tested on: CaR-1 (Colorectal Carcinoma); test: as above
Outline: as §1

[8] = tested on: HO-1-N-1 (Oral Cavity Carcinoma); test: as above
Outline: as §1

[9] = tested on: HOS (Osteosarcoma); test: as above
Outline: as §1

[10] = tested on: HT-1376 (Bladder Carcinoma); test: as above
Outline: as §1

[11] = tested on: Hs-578-T (Breast Carcinoma); test: as above
Outline: as §1

[12] = tested on: KELLY (Neuroblastoma); test: as above
Outline: as §1

[13] = tested on: KURAMOCHI (Ovarian Carcinoma); test: as above
Outline: as §1

[14] = tested on: LS-180 (Colorectal Carcinoma); test: as above
Outline: as §1

[15] = tested on: ME-1 (Acute Myeloid Leukemia); test: as above
Outline: as §1

[16] = tested on: NB10 (Neuroblastoma); test: as above
Outline: as §1

[17] = tested on: NCI-H2085 (Non-Small Cell Lung Carcinoma); test: as above
Outline: as §1

[18] = tested on: RO82-W-1 (Thyroid Gland Carcinoma); test: as above
Outline: as §1

[19] = tested on: Ramos-2G6-4C10 (Burkitt's Lymphoma); test: as above
Outline: as §1

[20] = tested on: T98G (Glioblastoma); test: as above
Outline: as §1
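For Bliss excess, mean over the matrix in this document: after 72 h of two-drug dosing.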

C=CCn1c(=O)c2cnc(Nc3ccc(N4CCN(C)CC4)cc3)nc2n1-c1cccc(C(C)(C)O)n1 [AZD1775] + CCc1c2c(nc3ccc(O)cc13)-c1cc3c(c(=O)n1C2)COC(=O)[C@]3(O)CC [SN-38] (first compound max 1 µM, partner max 0.3 µM)
Bliss excess [1]: -0.0934 | Bliss excess [2]: -0.0202 | Bliss excess [3]: -0.0569 | Bliss excess [4]: -0.0352 | combination Emax [5]: 0.974 | combination Emax [6]: 1 | combination Emax [7]: 0.808 | combination Emax [8]: 0.978 | combination Emax [9]: 0.849 | combination Emax [10]: 0.342 | combination Emax [11]: 0.855 | combination Emax [12]: 1 | combination Emax [13]: 0.944 | combination Emax [14]: 0.806 | combination Emax [15]: 0.597 | combination Emax [16]: 0.853 | combination Emax [17]: 0.523 | combination Emax [18]: 0.263 | combination Emax [19]: 1 | combination Emax [20]: 0.95

C=CCn1c(=O)c2cnc(Nc3ccc(N4CCN(C)CC4)cc3)nc2n1-c1cccc(C(C)(C)O)n1 [AZD1775] + Nc1ccn([C@@H]2O[C@H](CO)[C@@H](O)C2(F)F)c(=O)n1 [Gemcitabine] (first compound max 1 µM, partner max 0.3 µM)
Bliss excess [1]: 0.0754 | Bliss excess [2]: 0.032 | Bliss excess [3]: -0.0404 | Bliss excess [4]: -0.0271 | combination Emax [5]: 0.989 | combination Emax [6]: 1 | combination Emax [7]: 0.729 | combination Emax [8]: 0.993 | combination Emax [9]: 0.596 | combination Emax [10]: 0.428 | combination Emax [11]: 0.724 | combination Emax [12]: 1 | combination Emax [13]: 0.699 | combination Emax [14]: 0.754 | combination Emax [15]: 0.526 | combination Emax [16]: 0.933 | combination Emax [17]: 0.725 | combination Emax [18]: 0.194 | combination Emax [19]: 1 | combination Emax [20]: 0.781

CN(CCO)CC[C@H](CSc1ccccc1)Nc1ccc(S(=O)(=O)NC(=O)c2ccc(N3CCC([C@@H](O)c4ccccc4-c4ccc(Cl)cc4)CC3)cc2)cc1S(=O)(=O)C(F)(F)F [AZD4320] + CC(=O)O[C@H]1C(=O)[C@@]2(C)[C@H]([C@H](OC(=O)c3ccccc3)[C@]3(O)C[C@H](OC(=O)[C@H](O)[C@@H](NC(=O)c4ccccc4)c4ccccc4)C(C)=C1C3(C)C)[C@]1(OC(C)=O)CO[C@@H]1C[C@@H]2O [Paclitaxel] (first compound max 1 µM, 7x7, partner max 3 µM)
Bliss excess [1]: 0.184 | Bliss excess [2]: 0.207 | Bliss excess [3]: -0.0552 | Bliss excess [4]: 0.332 | combination Emax [5]: 1 | combination Emax [6]: 1 | combination Emax [7]: 0.911 | combination Emax [8]: 1 | combination Emax [9]: 1 | combination Emax [10]: 0.775 | combination Emax [11]: 1 | combination Emax [12]: 1 | combination Emax [13]: 0.707 | combination Emax [14]: 0.94 | combination Emax [15]: 1 | combination Emax [16]: 0.912 | combination Emax [17]: 0.97 | combination Emax [18]: 0.947 | combination Emax [19]: 0.872 | combination Emax [20]: 0.993

CN(CCO)CC[C@H](CSc1ccccc1)Nc1ccc(S(=O)(=O)NC(=O)c2ccc(N3CCC([C@@H](O)c4ccccc4-c4ccc(Cl)cc4)CC3)cc2)cc1S(=O)(=O)C(F)(F)F [AZD4320] + CS(=O)(=O)CCNCc1ccc(-c2ccc3ncnc(Nc4ccc(OCc5cccc(F)c5)c(Cl)c4)c3c2)o1 [Lapatinib] (first compound max 1 µM, 7x7, partner max 10 µM)
Bliss excess [1]: -0.0381 | Bliss excess [2]: 0.019 | Bliss excess [3]: 0.0747 | Bliss excess [4]: 0.0002 | combination Emax [5]: 0.94 | combination Emax [6]: 1 | combination Emax [7]: 0.785 | combination Emax [8]: 0.97 | combination Emax [9]: 0.348 | combination Emax [10]: 0.508 | combination Emax [11]: 0.99 | combination Emax [12]: 0.994 | combination Emax [13]: 0.939 | combination Emax [14]: 0.505 | combination Emax [15]: 1 | combination Emax [16]: 0.705 | combination Emax [17]: 0.807 | combination Emax [18]: 0.646 | combination Emax [19]: 0.961 | combination Emax [20]: 0.741

C[C@@H]1COCCN1c1cc(C2([S@](C)(=N)=O)CC2)nc(-c2ccnc3[nH]ccc23)n1 [AZD6738] + Nc1ccn([C@@H]2O[C@H](CO)[C@@H](O)C2(F)F)c(=O)n1 [Gemcitabine] (first compound max 10 µM, 7x7, partner max 0.3 µM)
Bliss excess [1]: 0.134 | Bliss excess [2]: 0.07 | Bliss excess [3]: -0.0333 | Bliss excess [4]: -0.018 | combination Emax [5]: 1 | combination Emax [6]: 1 | combination Emax [7]: 0.752 | combination Emax [8]: 1 | combination Emax [9]: 0.87 | combination Emax [10]: 0.491 | combination Emax [11]: 0.772 | combination Emax [12]: 1 | combination Emax [13]: 0.667 | combination Emax [14]: 0.819 | combination Emax [15]: 0.774 | combination Emax [17]: 0.587 | combination Emax [18]: 0.223 | combination Emax [20]: 0.858

N#Cc1cnc(Nc2cc(NC[C@H]3CNCCO3)c(C(F)(F)F)cn2)cn1 [SRA737] + C=CCn1c(=O)c2cnc(Nc3ccc(N4CCN(C)CC4)cc3)nc2n1-c1cccc(C(C)(C)O)n1 [AZD1775] (first compound max 10 µM, partner max 1 µM)
Bliss excess [1]: 0.06 | Bliss excess [3]: 0.0115 | Bliss excess [4]: -0.0441 | combination Emax [5]: 0.969 | combination Emax [6]: 0.995 | combination Emax [7]: 0.408 | combination Emax [8]: 0.666 | combination Emax [9]: 0.811 | combination Emax [10]: 0.387 | combination Emax [11]: 0.783 | combination Emax [12]: 1 | combination Emax [13]: 0.717 | combination Emax [14]: 0.758 | combination Emax [15]: 0.566 | combination Emax [16]: 0.84 | combination Emax [17]: 0.882 | combination Emax [18]: 0.116 | combination Emax [19]: 1 | combination Emax [20]: 0.9
